Consider 23 compounds from US12473304B2, “Heterocyclic PAD4 inhibitors” (BRISTOL-MYERS SQUIBB COMPANY, priority 2020, dated 2025).

Sequence of human PAD4 (hPAD4) (Q9UM07 whole entry): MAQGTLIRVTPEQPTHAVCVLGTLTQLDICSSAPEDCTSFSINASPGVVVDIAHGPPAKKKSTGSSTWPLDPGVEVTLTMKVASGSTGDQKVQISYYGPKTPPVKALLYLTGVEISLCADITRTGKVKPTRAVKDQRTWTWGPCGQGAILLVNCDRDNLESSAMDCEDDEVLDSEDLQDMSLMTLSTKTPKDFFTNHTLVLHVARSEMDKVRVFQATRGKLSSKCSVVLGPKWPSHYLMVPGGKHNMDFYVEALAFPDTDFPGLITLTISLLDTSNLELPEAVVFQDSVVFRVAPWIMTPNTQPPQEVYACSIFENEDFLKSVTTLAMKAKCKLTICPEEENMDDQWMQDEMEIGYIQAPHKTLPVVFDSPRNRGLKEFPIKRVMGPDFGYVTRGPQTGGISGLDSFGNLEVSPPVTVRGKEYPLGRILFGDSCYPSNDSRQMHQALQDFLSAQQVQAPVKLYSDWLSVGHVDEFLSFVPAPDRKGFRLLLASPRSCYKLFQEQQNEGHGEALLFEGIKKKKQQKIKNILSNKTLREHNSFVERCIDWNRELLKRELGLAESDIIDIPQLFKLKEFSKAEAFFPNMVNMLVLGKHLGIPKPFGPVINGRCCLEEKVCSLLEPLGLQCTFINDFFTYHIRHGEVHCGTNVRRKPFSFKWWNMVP

This experiment concerns the target human PAD4 (hPAD4) (Homo sapiens (Human), UniProt Q9UM07). The experiment is described as follows: RFMS Human PAD4 Functional Assay 1. The note with it: RFMS assay 1; 5 nM hPAD4, 250 μM BAEE substrate, 50 μM calcium, 37° C. The format is biochemical. The method in brief:
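Citrullination product read by RapidFire triple-quad MRM against a modified-citrulline internal standard, after TCA stop and 30 min phenyl glyoxal step at 37 °C. Reaction: 250 μM BAEE, 5 nM human PAD4, 90 min at 37 °C, pH 7.5 HEPES buffer with 50 μM calcium and 5 μM TPEN, following 30 min compound–enzyme preincubation (max 50 μM).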
For the compound `COc1cc(C(=O)N2CC3CCC2[C@H]3N)cn2nc(-c3cc4ccnc(OC[C@H]5CCC(=O)N5)c4n3CC3CC3)c(C)c12` (stereo in doubt) [Example 607, (5R)-5-(((2-(6-((7S)-7-Amino-2-azabicyclo[2.2.1]heptane-2-carbonyl)-4-methoxy-3-methylpyrazolo[1,5-a]pyridin-2-yl)-1-(cyclopropylmethyl)-1H-pyrrolo[2,3-c]pyridin-7-yl)oxy)methyl)pyrrolidin-2-one], the IC50 – broadly, the concentration needed to halve the response being measured – worked out at 50 nM.
Turning to `COc1cc(C(=O)N2C[C@H](N)C[C@@H](F)C2)cn2nc(-c3cc4cccc(OCCn5cncn5)c4n3CC3CC3)c(C)c12` [Example 556, (2-(7-(2-(1H-1,2,4-Triazol-1-yl)ethoxy)-1-(cyclopropylmethyl)-1H-indol-2-yl)-4-methoxy-3-methylpyrazolo[1,5-a]pyridin-6-yl)((3R,5R)-3-amino-5-fluoropiperidin-1-yl)methanone], the IC50 is 20 nM.
In the case of `COc1cc(C(=O)N2CC3CCC2[C@@H]3N)cn2nc(-c3cc4ccc(-c5ccn6c(C)nnc6c5)cc4n3CC3CC3)c(C)c12` (stereo partly drawn) [Example 25, ((7R)-7-Amino-2-azabicyclo[2.2.1]heptan-2-yl)(2-(1-(cyclopropylmethyl)-6-(3-methyl-[1,2,4]triazolo[4,3-a]pyridin-7-yl)-1H-indol-2-yl)-4-methoxy-3-methylpyrazolo[1,5-a]pyridin-6-yl)methanone] it was 17 nM; in that of `COc1cc(C(=O)N2CC3CCC2[C@@H]3N)cc2sc(-c3cc4ccc(-c5ccc6c(c5)C(=O)NC6)nc4n3CC3CC3)c(C)c12` (stereo partly drawn) [Example 135, 6-(2-(6-((7R)-7-Amino-2-azabicyclo[2.2.1]heptane-2-carbonyl)-4-methoxy-3-methylbenzo[b]thiophen-2-yl)-1-(cyclopropylmethyl)-1H-pyrrolo[2,3-b]pyridin-6-yl)isoindolin-1-one], 233 nM; in that of `Cc1c(-c2cc3cccc(C4CCN(C(=O)C(C)(C)CO)CC4)c3n2CC2CC2)nn2cc(C(=O)N3CCC[C@@H](N)C3)ccc12` [Example 434, (R)-1-(4-(2-(6-(3-aminopiperidine-1-carbonyl)-3-methylpyrazolo[1,5-a]pyridin-2-yl)-1-(cyclopropylmethyl)-1H-indol-7-yl)piperidin-1-yl)-3-hydroxy-2,2-dimethylpropan-1-one], 250 nM.
In the case of `COc1cc(-c2ccc3cc(-c4oc5cc(C(=O)N6CC7CCC6[C@@H]7N)ccc5c4C)n(CC4CC4)c3n2)ccn1` (stereo partly drawn) [Example 172, ((7R)-7-Amino-2-azabicyclo[2.2.1]heptan-2-yl)(2-(1-(cyclopropylmethyl)-6-(2-methoxypyridin-4-yl)-1H-pyrrolo[2,3-b]pyridin-2-yl)-3-methylbenzofuran-6-yl)methanone] it was 8770 nM; in that of `COc1cc(-c2ccc3cc(-c4oc5cc(C(=O)N6CC7CCC6[C@@H]7N)ccc5c4C)n(CC4CC4)c3c2)ccn1` (stereo partly drawn) [Example 186, ((7R)-7-Amino-2-azabicyclo[2.2.1]heptan-2-yl)(2-(1-(cyclopropylmethyl)-6-(2-methoxypyridin-4-yl)-1H-indol-2-yl)-3-methylbenzofuran-6-yl)methanone], 56 nM; in that of `COc1cc(C(=O)N2C[C@H](N)C[C@@H](F)C2)cn2nc(-c3cc4ccc(-c5ccc6c(c5)CNC6=O)cc4n3CC3CC3)c(C)c12` [Example 30, 5-(2-(6-((3R,5R)-3-Amino-5-fluoropiperidine-1-carbonyl)-4-methoxy-3-methylpyrazolo[1,5-a]pyridin-2-yl)-1-(cyclopropylmethyl)-1H-indol-6-yl)isoindolin-1-one], 84 nM.
With `COc1cc(C(=O)N2CCC[C@@H](N)C2)cn2nc(-c3cc4ccc(-c5ccccc5C(N)=O)cc4n3CC3CC3)c(C)c12` [Example 237, 2-(2-{6-[(3R)-3-Aminopiperidine-1-carbonyl]-4-methoxy-3-methylpyrazolo[1,5-a]pyridin-2-yl}-1-(cyclopropylmethyl)-1H-indol-6-yl)benzamide], the IC50 is 250 nM.
Under `COc1cc(C(=O)N2CC3CCC2[C@@H]3N)cc2sc(-c3cc4ccc(N5CCC(N)CC5)cc4n3CC3CC3)c(C)c12` (stereo partly drawn) [Example 130, ((7R)-7-Amino-2-azabicyclo[2.2.1]heptan-2-yl)(2-(6-(4-aminopiperidin-1-yl)-1-(cyclopropylmethyl)-1H-indol-2-yl)-4-methoxy-3-methylbenzo[b]thiophen-6-yl)methanone] stands 38 nM; under `COC(C)(C)C(=O)N1CC(c2cccc3cc(-c4nn5cc(C(=O)N6CCC[C@@H](N)C6)ccc5c4C)n(CC4CC4)c23)C1` [Example 536, (R)-1-(3-(2-(6-(3-Aminopiperidine-1-carbonyl)-3-methylpyrazolo[1,5-a]pyridin-2-yl)-1-(cyclopropylmethyl)-1H-indol-7-yl)azetidin-1-yl)-2-methoxy-2-methylpropan-1-one], 2520 nM; under `COc1cc(C(=O)N2C[C@H](N)C[C@@H](F)C2)cn2nc(-c3cc4ccc(N5CC(F)(CO)C5)cc4n3CC3CC3)c(C)c12` [Example 37, ((3R,5R)-3-Amino-5-fluoropiperidin-1-yl)(2-(1-(cyclopropylmethyl)-6-(3-fluoro-3-(hydroxymethyl)azetidin-1-yl)-1H-indol-2-yl)-4-methoxy-3-methylpyrazolo[1,5-a]pyridin-6-yl)methanone], 3610 nM.
Under `Cc1c(-c2cc3ccc(-c4ccc(O)c(F)c4)cc3n2CC2CC2)nn2cc(C(=O)N3CC4CCC3[C@@H]4N)cc(F)c12` (stereo partly drawn) [Example 60, ((7R)-7-Amino-2-azabicyclo[2.2.1]heptan-2-yl)(2-(1-(cyclopropylmethyl)-6-(3-fluoro-4-hydroxyphenyl)-1H-indol-2-yl)-4-fluoro-3-methylpyrazolo[1,5-a]pyridin-6-yl)methanone] stands 83 nM.
In the case of `Cc1c(-c2cc3ccc(N4CCC(O)CC4)nc3n2CC2CC2)nn2cc(C(=O)N3CC4CCC3[C@@H]4N)ccc12` (stereo partly drawn) [Example 77, ((7R)-7-Amino-2-azabicyclo[2.2.1]heptan-2-yl)(2-(1-(cyclopropylmethyl)-6-(4-hydroxypiperidin-1-yl)-1H-pyrrolo[2,3-b]pyridin-2-yl)-3-methylpyrazolo[1,5-a]pyridin-6-yl)methanone] it was 77 nM; in that of `COc1cc(C(=O)N2CC3CCC2[C@@H]3N)cn2nc(-c3cc4ccc(C5CC5)nc4n3CC3CC3)c(C)c12` (stereo partly drawn) [Example 6, ((7R)-7-Amino-2-azabicyclo[2.2.1]heptan-2-yl)(2-(6-cyclopropyl-1-(cyclopropylmethyl)-1H-pyrrolo[2,3-b]pyridin-2-yl)-4-methoxy-3-methylpyrazolo[1,5-a]pyridin-6-yl)methanone], 32 nM; in that of `CC(=O)N(C)C1CCN(c2ccc3cc(-c4nn5cc(C(=O)N6CCC[C@@H](N)C6)ccc5c4C)n(CC4CC4)c3c2)CC1` [Example 359, N-[1-(2-{6-[(3R)-3-Aminopiperidine-1-carbonyl]-3-methylpyrazolo[1,5-a]pyridin-2-yl}-1-(cyclopropylmethyl)-1H-indol-6-yl)piperidin-4-yl]-N-methyl acetamide], 240 nM.
In the case of `COc1cc(C(=O)N2CCC[C@@H](N)C2)cn2nc(-c3cc4cccc(C5CCN(C(=O)C6CC(O)C6)CC5)c4n3CC3CC3)c(C)c12` (single isomer, unassigned) [Example 392], the half-maximal inhibitory concentration (IC50) turned out to be 3 nM.
In the case of `COc1cc(C(=O)N2C[C@H](N)C[C@@H](F)C2)cn2nc(-c3cc4cccc(C5CCN(C(=O)C6CC(O)(C(F)(F)F)C6)CC5)c4n3CC3CC3)c(C)c12` (mixture of isomers) [Example 399, ((3R,5R)-3-Amino-5-fluoropiperidin-1-yl)(2-(1-(cyclopropylmethyl)-7-(1-(3-hydroxy-3-(trifluoromethyl)cyclobutane-1-carbonyl)piperidin-4-yl)-1H-indol-2-yl)-4-methoxy-3-methylpyrazolo[1,5-a]pyridin-6-yl)methanone] it was 50 nM; in that of `COCC(=O)N1CCC(c2cccc3cc(-c4nn5cc(C(=O)N6C[C@H](N)C[C@@H](F)C6)cc(F)c5c4C)n(CC4CC4)c23)CC1` [Example 428, 1-(4-(2-(6-((3R,5R)-3-Amino-5-fluoropiperidine-1-carbonyl)-4-fluoro-3-methylpyrazolo[1,5-a]pyridin-2-yl)-1-(cyclopropylmethyl)-1H-indol-7-yl)piperidin-1-yl)-2-methoxyethan-1-one], 30 nM; in that of `COC1CCN(c2ccc3cc(-c4nn5cc(C(=O)N6C[C@H](N)C[C@@H](F)C6)ccc5c4C)n(CC4CC4)c3n2)CC1` [Example 87, ((3R,5R)-3-Amino-5-fluoropiperidin-1-yl)(2-(1-(cyclopropylmethyl)-6-(4-methoxypiperidin-1-yl)-1H-pyrrolo[2,3-b]pyridin-2-yl)-3-methylpyrazolo[1,5-a]pyridin-6-yl)methanone], 2320 nM.
As to `Cc1c(-c2cc3ccc(N4CCC(S(C)(=O)=O)CC4)cc3n2CC2CC2)nn2cc(C(=O)N3CC4CCC3[C@@H]4N)ccc12` (stereo partly drawn) [Example 351, (7R)-2-{2-[1-(Cyclopropylmethyl)-6-(4-methanesulfonylpiperidin-1-yl)-1H-indol-2-yl]-3-methylpyrazolo[1,5-a]pyridine-6-carbonyl}-2-azabicyclo[2.2.1]heptan-7-amine], the half-maximal inhibitory concentration (IC50) stood at 100 nM.
In the case of `Cc1c(-c2cc3cccc(C4CCN(C(=O)[C@@H](C)O)CC4)c3n2CC2CC2)nn2cc(C(=O)N3CCC[C@@H](N)C3)ccc12` [Example 471, (R)-1-(4-(2-(6-((R)-3-aminopiperidine-1-carbonyl)-3-methylpyrazolo[1,5-a]pyridin-2-yl)-1-(cyclopropylmethyl)-1H-indol-7-yl)piperidin-1-yl)-2-hydroxypropan-1-one] it was 90 nM; in that of `COc1cc(C(=O)N2CCC[C@@H](N)C2)cn2nc(-c3cc4ccc(N5CCC(N(C)C(C)=O)CC5)cc4n3CC3CC3)c(C)c12` [Example 253, N-[1-(2-{6-[(3R)-3-Aminopiperidine-1-carbonyl]-4-methoxy-3-methylpyrazolo[1,5-a]pyridin-2-yl}-1-(cyclopropylmethyl)-1H-indol-6-yl)piperidin-4-yl]-N-methylacetamide], 290 nM.
